From PMC6272230, “Uses of 3-(2-Bromoacetyl)-2H-chromen-2-one in the Synthesis of Heterocyclic Compounds Incorporating Coumarin: Synthesis, Characterization and Cytotoxicity” (Molecules, 2015)
Read-outs that look alike come from different tables or passages of the source.

Assays:
[1] = test system: human gastric cancer (NUGC); test: In vitro cytotoxicity against NUGC cells; format: cell-based; conditions: read-out: Cytotoxicity (IC50 in nM) NUGC
Description: (§1) The heterocyclic compounds, prepared in this study, were evaluated according to standard protocols for their in vitro cytotoxicity against six human cancer cell lines including cells derived from human gastric cancer (NUGC), human colon cancer (DLD1), human liver cancer (HA22T and HEPG2), nasopharyngeal carcinoma (HONE1), human breast cancer (MCF) and normal fibroblast cells (WI38). For comparison purposes, CHS 828, a pyridyl cyanoguanidine, was used as a standard antitumor drug (Figure 2). […] All the synthesized compounds were tested for their cytotoxicity against normal fibroblast cells.
(§2) Fetal bovine serum (FBS) and L-glutamine, were purchased from Gibco Invitrogen Co. (Scotland, UK). RPMI-1640 medium was purchased from Cambrex (East Rutherford, NJ, USA). Dimethyl sulfoxide (DMSO), CHS 828, penicillin, streptomycin and sulforhodamine B (SRB) were purchased from Sigma Chemical Co. (Saint Louis, MO, USA).
(§3) Cell cultures were obtained from the European Collection of Cell Cultures (ECACC, Salisbury, UK) and human gastric cancer (NUGC), human colon cancer (DLD1), human liver cancer (HA22T and HEPG2), human breast cancer (MCF), nasopharyngeal carcinoma (HONE1) and normal fibroblast cells (WI38) were kindly provided by the National Cancer Institute (NCI, Cairo, Egypt). They were grown as a monolayer and routinely maintained in RPMI-1640 medium supplemented with 5% heat inactivated FBS, 2 mM glutamine and antibiotics (penicillin 100 U/mL, streptomycin 100 µg/mL) at 37 °C in a humidified atmosphere containing 5% CO2. Exponentially growing cells were obtained by plating 1.5 × 10^5 cells/mL for the six human cancer cell lines followed by 24 h of incubation. The effect of the vehicle solvent (DMSO) on the growth of these cell lines was evaluated in all the experiments by exposing untreated control cells to the maximum concentration (0.5%) of DMSO used in each assay.

[2] = test system: nasopharyngeal carcinoma (HONE1); test: In vitro cytotoxicity against HONE1 cells; format: cell-based; conditions: Homo sapiens
Description: as §1, §2, §3

[3] = test system: human liver cancer (HA22T); test: In vitro cytotoxicity against HA22T cells; format: cell-based; conditions: read-out: Cytotoxicity (IC50 in nM) HA22T
Description: as §1, §2, §3

[4] = test system: human breast cancer (MCF); test: In vitro cytotoxicity against MCF cells; format: cell-based; conditions: read-out: Cytotoxicity (IC50 in nM) MCF
Description: as §1, §2, §3

[5] = test system: human colon cancer (DLD1); test: In vitro cytotoxicity against DLD1 cells; format: cell-based
Description: as §1, §2, §3

[6] = test system: human liver cancer (HEPG2); test: In vitro cytotoxicity against HEPG2 cells; format: cell-based
Description: as §1, §2, §3

[7] = In vitro cytotoxicity against normal fibroblast cells WI38; format: cell-based; conditions: human, concentration producing 50% reduction in cell growth
Description: as §1, §2, §3

[8] = gastric cancer, concentration producing 50% reduction in cell growth
[9] = HONE1, nasopharyngeal carcinoma, concentration producing 50% reduction in cell growth, read-out: Cytotoxicity (IC50 in nM) HONE1
[10] = liver cancer, concentration producing 50% reduction in cell growth
[11] = MCF, breast cancer, concentration producing 50% reduction in cell growth
[12] = DLD-1, DLDI, colon cancer, concentration producing 50% reduction in cell growth, read-out: Cytotoxicity (IC50 in nM) DLDI
[13] = HEPG2, liver cancer, concentration producing 50% reduction in cell growth, read-out: Cytotoxicity (IC50 in nM) HEPG2

SMILES	IC50 [1]	IC50 ([2]; HONE1, read-out: Cytotoxicity (IC50 in nM) HONE1)	IC50 [3]	IC50 [4]	IC50 ([5]; DLD-1, read-out: Cytotoxicity (IC50 in nM) DLDI)	IC50 ([6]; HepG2, read-out: Cytotoxicity (IC50 in nM) HEPG2)	IC50 [1, 8]	IC50 [2, 9]	IC50 [3, 10]	IC50 [4, 11]	melting point	IC50 [5, 12]	IC50 [6, 13]	IC50 [7]
N#CN=C(NCCCCCCOc1ccc(Cl)cc1)Nc1ccncc1 [CHS 828, reference compound]	25 nM	15 nM	2070 nM	18 nM	2320 nM	1240 nM								
O=C(C(Br)=NNc1ccccc1)c1cc2ccccc2oc1=O [Compound 2, 2-oxo-2-(2-oxo-2H-chromen-3-yl)-N'-phenylacetohydrazonoylbromide]							48 nM	1480 nM	1120 nM	288 nM	88 to 90 °C	60 nM	174 nM	
N#CC(C#N)=C(CO)c1cc2ccccc2oc1=O [Compound 3, 2-(2-Hydroxy-1-(2-oxo-2H-chromen-3-yl)ethylidene)malononitrile]							1160 nM	699 nM	1650 nM	821 nM	162 to 164 °C	1280 nM	1230 nM	910 nM
N#Cc1c(N)sc(Br)c1-c1cc2ccccc2oc1=O [Compound 4a, 2-Amino-5-bromo-4-(2-oxo-2H-chromen-3-yl)thiophene-3-carbonitrile]							32 nM	228 nM	27 nM	2060 nM	180 to 182 °C	50 nM	221 nM	780 nM
CCOC(=O)c1c(N)sc(Br)c1-c1cc2ccccc2oc1=O [Compound 4b, Ethyl 2-amino-5-bromo-4-(2-oxo-2H-chromen-3-yl)thiophene-3-carboxylate]							84 nM	1210 nM	219 nM	1140 nM	177 to 179 °C	167 nM	2020 nM	
O=c1oc2ccccc2cc1-c1cn(-c2ccccc2)c(=Nc2ccccc2)s1 [Compound 5a, 3-(3-Phenyl-2-(phenylimino)-2,3-dihydrothiazol-5-yl)-2H-chromen-2-one]							228 nM	2050 nM	213 nM	2010 nM	158 to 160 °C	569 nM	1110 nM	632 nM
Cc1ccc(-n2cc(-c3cc4ccccc4oc3=O)sc2=Nc2ccccc2)cc1 [Compound 5b, 3-(2-(Phenylimino)-3-(p-tolyl)-2,3-dihydrothiazol-5-yl)-2H-chromen-2-one]							2210 nM	2180 nM	1290 nM	1230 nM	99 to 101 °C	1070 nM	1300 nM	489 nM
COc1ccc(-n2cc(-c3cc4ccccc4oc3=O)sc2=Nc2ccccc2)cc1 [Compound 5c, 3-(3-(4-Methoxyphenyl)-2-(phenylimino)-2,3-dihydrothiazol-5-yl)-2H-chromen-2-one]							1620 nM	670 nM	274 nM	1180 nM	103 to 105 °C	396 nM	2120 nM	490 nM
O=c1oc2ccccc2cc1-c1cn(-c2ccc(Cl)cc2)c(=Nc2ccccc2)s1 [Compound 5d, 3-(3-(4-Chlorophenyl)-2-(phenylimino)-2,3-dihydrothiazol-5-yl)-2H-chromen-2-one]							38 nM	441 nM	120 nM	1260 nM	123 to 125 °C	163 nM	3740 nM	860 nM
N#CC1=C(N)OC(c2cc3ccccc3oc2=O)=C(Br)C1c1ccccc1 (stereo not shown) [Compound 6a, 2-Amino-5-bromo-6-(2-oxo-2H-chromen-3-yl)-4-phenyl-4H-pyran-3-carbonitrile]							1090 nM	1180 nM	1240 nM	2180 nM	140 to 142 °C	303 nM	59 nM	
N#CC1=C(N)OC(c2cc3ccccc3oc2=O)=C(Br)C1c1ccco1 (stereo not shown) [Compound 6d, 2-Amino-5-bromo-4-(furan-2-yl)-6-(2-oxo-2H-chromen-3-yl)-4H-pyran-3-carbonitrile]							29 nM	279 nM	2110 nM	931 nM	148 to 150 °C	98 nM	360 nM	
N#CC1=C(N)NC(c2cc3ccccc3oc2=O)=C(Br)C1c1ccc(Cl)cc1 (stereo not shown) [Compound 7c, 2-Amino-5-bromo-4-(4-chlorophenyl)-6-(2-oxo-2H-chromen-3-yl)-1,4-dihydropyridine-3-carbonitrile]							98 nM	221 nM	128 nM	43 nM	206 to 208 °C	32 nM	416 nM	
N#CC1=C(N)NC(c2cc3ccccc3oc2=O)=C(Br)C1c1ccco1 (stereo not shown) [Compound 7d, 2-Amino-5-bromo-4-(furan-2-yl)-6-(2-oxo-2H-chromen-3-yl)-1,4-dihydropyridine-3-carbonitrile]							682 nM	1190 nM	52 nM	1130 nM	205 to 207 °C	163 nM	2730 nM	
Nc1cc(-c2cc3ccccc3oc2=O)n[nH]1 [Compound 9a, 3-(5-Amino-1H-pyrazol-3-yl)-2H-chromen-2-one]							3470 nM	442 nM	2170 nM	1290 nM	218 to 220 °C	48 nM	359 nM	
Nc1cc(-c2cc3ccccc3oc2=O)nn1-c1ccccc1 [Compound 9b, 3-(5-Amino-1-phenyl-1H-pyrazol-3-yl)-2H-chromen-2-one]							1120 nM	4270 nM	1580 nM	1650 nM	158 to 160 °C	2240 nM	415 nM	
COc1ccc(C2C(C#N)=C(N)OC(c3cc4ccccc4oc3=O)=C2C#N)cc1 (stereo not shown) [Compound 10b, 2-Amino-4-(4-methoxyphenyl)-6-(2-oxo-2H-chromen-3-yl)-4H-pyran-3,5-dicarbonitrile]							1340 nM	2180 nM	89 nM	2120 nM	113 to 115 °C	2280 nM	1320 nM	
N#CC1=C(N)OC(c2cc3ccccc3oc2=O)=C(C#N)C1c1ccc(Cl)cc1 (stereo not shown) [Compound 10c, 2-Amino-4-(4-chlorophenyl)-6-(2-oxo-2H-chromen-3-yl)-4H-pyran-3,5-dicarbonitrile]							312 nM	89 nM	4170 nM	584 nM	178 to 180 °C	193 nM	399 nM	
N#CC1=C(N)OC(c2cc3ccccc3oc2=O)=C(C#N)C1c1ccco1 (stereo not shown) [Compound 10d, 2-Amino-4-(furan-2-yl)-6-(2-oxo-2H-chromen-3-yl)-4H-pyran-3,5-dicarbonitrile]							47 nM	220 nM	102 nM	2250 nM	133 to 135 °C	68 nM	3320 nM	
COc1ccc(C2C(C#N)=C(N)NC(c3cc4ccccc4oc3=O)=C2C#N)cc1 (stereo not shown) [Compound 11b, 2-Amino-4-(4-methoxyphenyl)-6-(2-oxo-2H-chromen-3-yl)-1,4-dihydropyridine-3,5-dicarbonitrile]							124 nM	1670 nM	3060 nM	39 nM	99 to 101 °C	58 nM	215 nM	
N#CC1=C(N)NC(c2cc3ccccc3oc2=O)=C(C#N)C1c1ccc(Cl)cc1 (stereo not shown) [Compound 11c, 2-Amino-4-(4-chlorophenyl)-6-(2-oxo-2H-chromen-3-yl)-1,4-dihydropyridine-3,5-dicarbonitrile]							1280 nM	1770 nM	2060 nM	839 nM	197 to 199 °C	483 nM	424 nM	
